Reference: patent publication US20230060174A1, “PHARMACEUTICAL COMPOSITION OF TRICYCLIC PDE3/PDE4 DUAL INHIBITOR COMPOUND” (CHIA TAI TIANQING PHARMACEUTICAL GROUP CO., LTD., priority 2020, published 2023)

What was measured:
[1] = biological target: T1, recombinant human PDE3A (Homo sapiens, UniProt Q14432); assay: In vitro inhibitory activity against PDE 3A enzyme (fluorescence polarization); type: biochemical; conditions: 1 μM cAMP substrate
T1 construct: amino acid 669-end; GST (N); host or cells: Sf9 insect cells (baculovirus)
Experimental: Experimental Example 3: In vitro detection of the inhibitory activity of the compound against PDE 3A enzyme
Objective: to determine the AMP/GMP expression based on fluorescence polarization, i.e., to trace binding of AMP/GMP to antibody so as to indicate enzyme activity.
Buffer solution: 10 mM Tris—HCl (pH 7.5), 5 mM MgCl2, 0.01% Brij 35, 1 mM dithiothreitol (DTT), and 1% DMSO.
Enzyme: recombinant human PDE3A (Gene accession number: NM 000921; amino acid 669-end) was expressed by baculovirus in Sf9 insect cells using an N-terminal GST tag, with the molecular weight being 84 kDa.
Enzyme substrate: 1 μM cAMP Detection: TranscreenerOAMP2/GMP2 antibody and AMP2/GMP2 AlexaFluor633 tracer.
Procedures: • 1. The recombinant human PDE3A enzyme and enzyme substrate (μM cAMP) were each dissolved in newly prepared experimental buffer solution; • 2. […] The measurement range of fluorescence polarization was […]. • Data analysis: the fluorescence polarization signal was converted to nM based on AMP/GMP standard curve and the percentage enzyme activity relative to DMSO control calculated by Excel. […] The measurement range of fluorescence polarization was Ex/Em=620/688. • […]

[2] = biological target: T2, CYP2C9 (Homo sapiens, UniProt P11712); assay: Inhibition of human liver microsomal CYP2C9 (diclofenac probe); type: in vitro ADME; conditions: human liver microsomes
T2 construct: co-incubated with human liver microsomes; from tissue; host or cells: human liver microsomes
Experimental: (§1) Experimental Example 6: Inhibitory effect on activity of isoenzymes (CYP1A2, CYP2C9, CYP2C19, CYP2D6 and CYP3A4) of human liver microsomal cytochrome P450 A total of 5 specific probe substrates of 5 isoenzymes of CYP, namely phenacetin (CYP1A2), diclofenac (CYP2C9), (S)-mephenytoin (CYP2C19), dextromethorphan (CYP2D6) and midazolam (CYP3A4) were each co-incubated with human liver microsomes and the compound of formula (I), and then reduced nicotinamide adenine dinucleotide phosphate (NADPH) was added to initiate the reaction. After the reaction was completed, the samples were treated, and the concentrations of 5 metabolites (acetaminophen, 4′-hydroxydiclofenac, 4′-hydroxymephenytoin, dextrorphan and l′-hydroxymidazolam) generated from the specific substrates were quantitatively detected by lC-MS/MS to calculate the correcnondino- half maximal inhibitory concentrationc (IC50)

[3] = biological target: T3, CYP2D6 (Homo sapiens, UniProt P10635); assay: Inhibition of human liver microsomal CYP2D6 (dextromethorphan probe); type: in vitro ADME; conditions: human liver microsomes
T3 construct: co-incubated with human liver microsomes; from tissue; host or cells: human liver microsomes
Experimental: as §1

[4] = biological target: T4, CYP3A4 (Homo sapiens, UniProt P08684); assay: Inhibition of human liver microsomal CYP3A4 (midazolam probe); type: in vitro ADME; conditions: human liver microsomes
T4 construct: co-incubated with human liver microsomes; from tissue; host or cells: human liver microsomes
Experimental: as §1

T4 sequence (P08684 whole entry): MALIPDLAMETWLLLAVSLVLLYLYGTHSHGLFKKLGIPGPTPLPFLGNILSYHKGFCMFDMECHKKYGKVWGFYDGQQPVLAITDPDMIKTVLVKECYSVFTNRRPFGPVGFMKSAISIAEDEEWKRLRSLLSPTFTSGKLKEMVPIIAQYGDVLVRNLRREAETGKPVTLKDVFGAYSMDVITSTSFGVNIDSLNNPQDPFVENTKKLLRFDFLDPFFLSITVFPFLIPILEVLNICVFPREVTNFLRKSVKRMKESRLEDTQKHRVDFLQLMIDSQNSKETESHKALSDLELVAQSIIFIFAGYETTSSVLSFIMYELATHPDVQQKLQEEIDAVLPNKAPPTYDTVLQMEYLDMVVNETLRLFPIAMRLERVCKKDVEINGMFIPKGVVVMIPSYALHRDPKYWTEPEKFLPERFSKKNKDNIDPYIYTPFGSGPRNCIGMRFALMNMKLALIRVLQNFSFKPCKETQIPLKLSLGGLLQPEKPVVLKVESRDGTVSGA
T2 sequence (P11712 whole entry): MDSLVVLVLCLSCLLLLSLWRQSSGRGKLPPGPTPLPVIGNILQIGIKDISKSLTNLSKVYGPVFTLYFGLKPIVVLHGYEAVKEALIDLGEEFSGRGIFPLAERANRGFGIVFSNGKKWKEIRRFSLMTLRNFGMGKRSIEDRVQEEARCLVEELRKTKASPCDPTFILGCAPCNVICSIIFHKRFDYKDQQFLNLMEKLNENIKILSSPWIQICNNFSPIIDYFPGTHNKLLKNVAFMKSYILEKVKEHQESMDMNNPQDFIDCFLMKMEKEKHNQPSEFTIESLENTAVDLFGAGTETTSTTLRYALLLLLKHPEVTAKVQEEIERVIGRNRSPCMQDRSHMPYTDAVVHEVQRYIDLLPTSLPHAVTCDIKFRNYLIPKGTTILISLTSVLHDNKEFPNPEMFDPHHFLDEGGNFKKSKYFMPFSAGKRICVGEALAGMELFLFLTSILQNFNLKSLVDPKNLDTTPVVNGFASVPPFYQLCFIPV
T1 sequence (Q14432 669-1141 limits assumed): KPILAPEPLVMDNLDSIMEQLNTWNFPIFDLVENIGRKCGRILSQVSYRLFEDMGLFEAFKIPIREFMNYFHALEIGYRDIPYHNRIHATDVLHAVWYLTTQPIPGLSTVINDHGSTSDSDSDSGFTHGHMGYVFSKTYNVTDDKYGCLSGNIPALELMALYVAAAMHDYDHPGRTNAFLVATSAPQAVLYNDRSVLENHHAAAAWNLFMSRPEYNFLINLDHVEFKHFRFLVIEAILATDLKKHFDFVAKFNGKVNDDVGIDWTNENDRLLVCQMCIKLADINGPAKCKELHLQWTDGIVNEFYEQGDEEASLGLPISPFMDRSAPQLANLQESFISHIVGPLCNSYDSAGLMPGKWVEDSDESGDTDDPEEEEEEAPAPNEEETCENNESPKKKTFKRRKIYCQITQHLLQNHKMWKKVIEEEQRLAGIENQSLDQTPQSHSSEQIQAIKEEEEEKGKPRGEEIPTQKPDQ
T3 sequence (P10635 whole entry): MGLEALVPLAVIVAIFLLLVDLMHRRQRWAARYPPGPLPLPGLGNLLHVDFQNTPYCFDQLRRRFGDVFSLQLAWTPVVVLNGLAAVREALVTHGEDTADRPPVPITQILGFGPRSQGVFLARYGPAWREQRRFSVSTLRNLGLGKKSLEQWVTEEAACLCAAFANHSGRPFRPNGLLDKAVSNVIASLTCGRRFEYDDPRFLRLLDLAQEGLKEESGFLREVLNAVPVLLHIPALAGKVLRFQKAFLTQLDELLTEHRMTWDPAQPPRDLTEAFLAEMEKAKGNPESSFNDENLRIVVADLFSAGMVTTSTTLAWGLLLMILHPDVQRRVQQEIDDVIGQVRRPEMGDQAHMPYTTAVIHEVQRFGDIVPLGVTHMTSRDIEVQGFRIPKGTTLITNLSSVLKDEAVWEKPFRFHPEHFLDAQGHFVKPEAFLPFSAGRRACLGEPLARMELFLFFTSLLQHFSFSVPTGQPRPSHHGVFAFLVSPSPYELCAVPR

IC50 [1]: 30 pM
IC50 [2]: 31 µM
IC50 [3]: ≥ 50 µM
IC50 [4]: ≥ 50 µM
Compound: CCOc1cc2c(cc1OC)-c1c/c(=N\c3c(C)cc(C)cc3C)n(CCNC(=O)c3c(O)nnn3C)c(=O)n1CC2 [Compound of formula (I)]
